# From article PMC10428001 (Cancer research, 2022)
# Columns and labels:
# [1] = tested on: Ba/F3 cells WT EGFR (+ rhEGF); assay: Ba/F3 cell viability; format: cell-based; details: Mus musculus, BaF3, 72 h, read-out: IC50 (average ± SD)
# [2] = tested on: Ba/F3 cells HER2 A775_G776insYVMA; assay: Ba/F3 cell viability; format: cell-based; details: Mus musculus, BaF3, 72 h, read-out: IC50 (average ± SD)
# [3] = tested on: Ba/F3 cells HER2 P780_Y781insGSP; assay: Ba/F3 cell viability; format: cell-based; details: Mus musculus, BaF3, 72 h, read-out: IC50 (average ± SD)
# [4] = tested on: Ba/F3 cells HER2 G776delinsVC; assay: Ba/F3 cell viability; format: cell-based; details: Mus musculus, BaF3, 72 h, read-out: IC50 (average ± SD)
# [5] = tested on: Ba/F3 cells HER2 M774delinsWLV; assay: Ba/F3 cell viability; format: cell-based; details: Mus musculus, BaF3, 72 h, read-out: IC50 (average ± SD)
# Ba/F3 cells HER2 S310F = assay: Ba/F3 cell viability; format: cell-based; details: Mus musculus, BaF3, 72 h, read-out: IC50 (average ± SD)
# Ba/F3 cells HER2 L755S = assay: Ba/F3 cell viability; format: cell-based; details: Mus musculus, BaF3, 72 h, read-out: IC50 (average ± SD)
# Ba/F3 cells HER2 V777L = assay: Ba/F3 cell viability; format: cell-based; details: Mus musculus, BaF3, 72 h, read-out: IC50 (average ± SD)
# Ba/F3 cells HER2 V862I = assay: Ba/F3 cell viability; format: cell-based; details: Mus musculus, BaF3, 72 h, read-out: IC50 (average ± SD)
# [6] = tested on: Ba/F3 cells HER2 755_757LREdelinsRP; assay: Ba/F3 cell viability; format: cell-based; details: Mus musculus, BaF3, 72 h, read-out: IC50 (average ± SD)
# [7] = tested on: Ba/F3 cells HER2 amplification; assay: Ba/F3 cell viability; format: cell-based; details: Mus musculus, BaF3, 72 h, read-out: IC50 (average ± SD)
# MCF7 = assay: Cancer cell viability; format: cell-based, human; details: Homo sapiens, MCF7, 72 h, read-out: IC50 (average ± SD)
# H1781 = assay: Cancer cell viability; format: cell-based, human; details: Homo sapiens, NCI-H1781, 72 h, read-out: IC50 (average ± SD)
# H1819 = assay: Cancer cell viability; format: cell-based; details: Homo sapiens, NCI-H1819, 72 h, read-out: IC50 (average ± SD)
# Calu-3 = assay: Cancer cell viability; format: cell-based; details: Homo sapiens, Calu-3, 72 h, read-out: IC50 (average ± SD)
# DFCI 429 = assay: Patient-derived cancer cell viability; format: cell-based, human; details: Homo sapiens, 72 h, read-out: IC50 (average ± SD)
# BT-474 = assay: Cancer cell viability; format: cell-based, human; details: Homo sapiens, BT-474, 72 h, read-out: IC50 (average ± SD)
# SKBR3 = assay: Cancer cell viability; format: cell-based, human; details: Homo sapiens, SK-BR-3, 72 h, read-out: IC50 (average ± SD)
# NCI-N87 = assay: Cancer cell viability; format: cell-based, human; details: Homo sapiens, NCI-N87, 72 h, read-out: IC50 (average ± SD)
# HER2 mutant lung cancer = details: patients with HER2 mutant NSCLC, clinical trial ref 35; cited from earlier work
# [8] = tested on: WT EGFR vs all HER2 mutants Ba/F3 cells; assay: Selectivity index from Ba/F3 IC50 ratios; format: cell-based; details: average over HER2 mutants
# Calu-3 tumors = assay: Calu-3 xenograft efficacy; format: in vivo; details: Calu-3 in NCr nude mice, oral, 39 days; JBJ-08-178-01 at 50 mg/kg BID
# A-431 = assay: Cancer cell viability; format: cell-based, human; details: read-out: IC50 (average ± SD); A-431, epidermoid, EGFR amp, 72 h
IC50 [1] [nM],IC50 [2] [nM],IC50 [3] [nM],IC50 [4] [nM],IC50 [5] [nM],IC50 (Ba/F3 cells HER2 S310F) [nM],IC50 (Ba/F3 cells HER2 L755S) [nM],IC50 (Ba/F3 cells HER2 V777L) [nM],IC50 (Ba/F3 cells HER2 V862I) [nM],IC50 [6] [nM],IC50 [7] [nM],IC50 (MCF7) [nM],IC50 (H1781) [nM],IC50 (H1819) [nM],IC50 (Calu-3) [nM],IC50 (DFCI 429) [nM],IC50 (BT-474) [nM],IC50 (SKBR3) [nM],IC50 (NCI-N87) [nM],IC50 (A-431) [nM],Structure (SMILES),also measured
5180 ± 2520,269 ± 88.1,131 ± 37.3,97.8 ± 43.3,683 ± 288,371 ± 168,2090 ± 981,7.2 ± 0.57,1940 ± 1110,102 ± 23.6,126 ± 81.8,11300,3910,521 ± 551,1900,2790,1730,840 ± 918,16.2 ± 2.4,–,Cc1cc(Nc2ncnc3ccc(NC4=NC(C)(C)CO4)cc23)ccc1Oc1ccn2ncnc2c1 [tucatinib],Selectivity index (IC50 ratio = WT EGFR ÷ all HER2 mutants) [8]: 8.91; tumor growth (Calu-3 tumors): less efficacious than other covalent inhibitors
–,2.96 ± 1.29,5.17 ± 2.32,6.89 ± 6.66,8.75 ± 3.74,14.1 ± 20.6,83.2 ± 35.7,3.13 ± 0.21,22.1 ± 10.9,1.79 ± 1.39,2.75 ± 2.89,1970,169 ± 84.6,29.5 ± 19.5,162 ± 110,163 ± 153,175 ± 136,117 ± 105,1.7 ± 0.2,73.9 ± 60.9,CN(C)C/C=C/C(=O)Nc1cc2c(Nc3ccc(F)c(Cl)c3)ncnc2cc1O[C@H]1CCOC1 [afatinib],–
1.41 ± 0.56,1.05 ± 0.67,1.28 ± 1.12,1.17 ± 0.86,3.45 ± 2.45,73.5 ± 41.1,523 ± 440,2.43 ± 0.77,29.3 ± 43,0.95 ± 0.94,1.08 ± 1.04,5940,197 ± 147,75.5 ± 28.8,4.7 ± 2,744 ± 747,368 ± 414,929,0.7,59.9 ± 46.1,C=CC(=O)N1CCC(Oc2cc3c(Nc4ccc(Cl)c(Cl)c4F)ncnc3cc2OC)CC1 [poziotinib],–

Structure (SMILES),IC50 [1] [nM],IC50 [2] [nM],IC50 [3] [nM],IC50 [4] [nM],IC50 [5] [nM],IC50 (Ba/F3 cells HER2 S310F) [nM],IC50 (Ba/F3 cells HER2 L755S) [nM],IC50 (Ba/F3 cells HER2 V777L) [nM],IC50 (Ba/F3 cells HER2 V862I) [nM],IC50 [6] [nM],IC50 [7] [nM],IC50 (MCF7) [nM],IC50 (H1781) [nM],IC50 (H1819) [nM],IC50 (Calu-3) [nM],IC50 (DFCI 429) [nM],IC50 (BT-474) [nM],IC50 (SKBR3) [nM],IC50 (NCI-N87) [nM],IC50 (A-431) [nM],also measured
CCOc1cc2ncc(C#N)c(Nc3ccc(OCc4ccccn4)c(Cl)c3)c2cc1NC(=O)/C=C/CN(C)C [neratinib],13.5 ± 6.52,5.78 ± 2.09,4.96 ± 2.31,7.4 ± 4.64,16 ± 11.7,49.1 ± 64,112 ± 69.7,2.66 ± 0.48,8.64 ± 3.81,5.41 ± 4.54,5.64 ± 3.72,1280,296 ± 331,50.8 ± 14.1,57.9 ± 39.6,51.9 ± 45.8,48 ± 10,68.4 ± 65.5,1.1 ± 0.1,–,patients with objective response (HER2 mutant lung cancer): one out of 26
